Results reported in patent US11638706B2, “Methods for treating Huntington's disease” (PTC Therapeutics, Inc., priority 2015, dated 2023).

Test system: Huntingtin protein (HTT)
Assay: Endogenous Huntingtin Protein Assay (MSD electrochemiluminescence ELISA; MW1 or MAB2166 capture, #5656S detection)
Assay type: cell-based, human
Procedure: The Endogenous Huntingtin Protein assay used in Example 2 was developed using the Best Pair antibodies identified in Table 2, providing highly sensitive, high-throughput detection assays for polyglutamine-expanded (mHTT) and total human HTT in multiple cell systems. The platform used for the assay is the ELISA-based Meso Scale Discovery (MSD) electrochemiluminescence assay platform.
Meso Scale Discovery (MSD) 96-well or 384-well plates were coated overnight at 4° C. with MW1 (expanded polyglutamine) or MAB2166 monoclonal antibody (for capture) at a concentration of 1 μg/mL in PBS (30 μL per well). Plates were then washed three times with 300 μL wash buffer (0.05% Tween-20 in PBS) and blocked (100 μL blocking buffer; 5% BSA in PBS) for 4-5 hours at room temperature with rotational shaking and then washed three times with wash buffer.
Samples (25 μL) were transferred to the antibody-coated MSD plate and incubated overnight at 4° C. After removal of the lysates, the plate was washed three times with wash buffer, and 25 μL of #5656S (Cell signaling; rabbit monoclonal) secondary antibody (diluted to 0.25 μg/mL in 0.05% Tween-20 in blocking buffer) was added to each well and incubated with shaking for 1 Hour at room temperature. Following incubation with the secondary antibody, the wells were rinsed with wash buffer after which 25 μL of goat anti-rabbit SULFO TAG secondary detection antibody (required aspect of the MSD system) (diluted to 0.25 μg/mL in 0.05% Tween-20 in blocking buffer) was added to each well and incubated with shaking for 1 hour at room temperature. After rinsing three times with wash buffer, 150 μL of read buffer T with surfactant (MSD) were added to each empty well, and the plate was imaged on a SI 6000 imager (MSD) according to manufacturers' instructions provided for 96- or 384-well plates.

| SMILES | IC50 [µM] |
| --- | --- |
| Oc1cc(-c2cn[nH]c2)ccc1-c1ccc(C2=CCNCC2)nn1 [Cpd 424, 5-(1H-pyrazol-4-yl)-2-[6-(1,2,3,6-tetrahydropyridin-4-yl)pyridazin-3-yl]phenol] | 0.1 to 0.5 |
| CCN1CC=C(c2ccc(-c3ccc(-c4cn[nH]c4)cc3O)nn2)CC1 [Cpd 425, 2-[6-(1-ethyl-1,2,3,6-tetrahydropyridin-4-yl)pyridazin-3-yl]-5-(1H-pyrazol-4-yl)phenol] | 0.1 to 0.5 |
| CN(c1ccc(-c2ccc(-c3cn[nH]c3)cc2O)nn1)C1CCNCC1 [Cpd 426, 2-{6-[methyl(piperidin-4-yl)amino]pyridazin-3-yl}-5-(1H-pyrazol-4-yl)phenol] | 0.1 to 0.5 |
| Oc1cc(-c2cn[nH]c2)ccc1-c1ccc(NC2CCNCC2)nn1 [Cpd 427, 2-[6-(piperidin-4-ylamino)pyridazin-3-yl]-5-(1H-pyrazol-4-yl)phenol] | 0.1 to 0.5 |
| CN(c1ccc(-c2cc(F)c(-c3cn[nH]c3)cc2F)nn1)C1CC(C)(C)NC(C)(C)C1 [Cpd 428, 6-[2,5-difluoro-4-(1H-pyrazol-4-yl)phenyl]-N-methyl-N-(2,2,6,6-tetramethylpiperidin-4-yl)pyridazin-3-amine] | 0.1 to 0.5 |
| Oc1cc(-c2cn[nH]c2)ccc1-c1ccc(C2=CC3CCC(C2)N3)nn1 (centres unmarked) [Cpd 429, 2-[6-(8-azabicyclo[3.2.1]oct-2-en-3-yl)pyridazin-3-yl]-5-(1H-pyrazol-4-yl)phenol] | 0.1 to 0.5 |
| CN(c1ccc(-c2ccc(-c3cn[nH]c3)c(F)c2F)nn1)C1CC(C)(C)NC(C)(C)C1 [Cpd 430, 6-[2,3-difluoro-4-(1H-pyrazol-4-yl)phenyl]-N-methyl-N-(2,2,6,6-tetramethylpiperidin-4-yl)pyridazin-3-amine] | 0.1 to 0.5 |
| Oc1cc(-c2cn[nH]c2)ccc1-c1ccc(NC2C[C@H]3CC[C@@H](C2)N3)nn1 (stereo partly drawn) [Cpd 433, 2-{6-[(1R,5S)-8-azabicyclo[3.2.1]oct-3-ylamino]pyridazin-3-yl}-5-(1H-pyrazol-4-yl)phenol] | 0.1 to 0.5 |
| COc1nc(-c2cn[nH]c2)ccc1-c1ccc(N(C)C2CC(C)(C)NC(C)(C)C2)nn1 [Cpd 434, 6-[2-methoxy-6-(1H-pyrazol-4-yl)pyridin-3-yl]-N-methyl-N-(2,2,6,6-tetramethylpiperidin-4-yl)pyridazin-3-amine] | 0.5 to 1 |
| CC1(C)CC(Oc2ccc(-c3ccc(-c4cn[nH]c4)cc3)nn2)CC(C)(C)N1 [Cpd 435, 3-[4-(1H-pyrazol-4-yl)phenyl]-6-[(2,2,6,6-tetramethylpiperidin-4-yl)oxy]pyridazine] | 0.5 to 1 |
| CC1CC(Oc2ccc(-c3ccc(-c4cn[nH]c4)cc3O)nn2)CC(C)N1 (centres unmarked) [Cpd 436, 2-{6-[(2,6-dimethylpiperidin-4-yl)oxy]pyridazin-3-yl}-5-(1H-pyrazol-4-yl)phenol] | 0.5 to 1 |
| Cn1cc(-c2csc(-c3ccc(OC4CC(C)(C)NC(C)(C)C4)nn3)c2)cn1 [Cpd 438, 3-[4-(1-methyl-1H-pyrazol-4-yl)thiophen-2-yl]-6-[(2,2,6,6-tetramethylpiperidin-4-yl)oxy]pyridazine] | 1 to 3 |
| CN(c1ccc(-c2ccc(O)cc2F)nn1)C1CC(C)(C)NC(C)(C)C1 [Cpd 440, 3-fluoro-4-{6-[methyl(2,2,6,6-tetramethylpiperidin-4-yl)amino]pyridazin-3-yl}phenol] | 3 to 9 |
| CC1CC(Oc2ccc(-c3ccc(-n4cccn4)cc3O)nn2)CC(C)N1 (centres unmarked) [Cpd 441, 2-{6-[(2,6-dimethylpiperidin-4-yl)oxy]pyridazin-3-yl}-5-(1H-pyrazol-1-yl)phenol] | 3 to 9 |
| CN(c1ccc(-c2ccc3nn(C)cc3c2)nn1)C1CC(C)(C)NC(C)(C)C1 [Cpd 442, N-methyl-6-(2-methyl-2H-indazol-5-yl)-N-(2,2,6,6-tetramethylpiperidin-4-yl)pyridazin-3-amine] | 3 to 9 |
| Cc1nn2ccccc2c1-c1ccc(N(C)C2CC(C)(C)NC(C)(C)C2)nn1 [Cpd 445, N-methyl-6-(2-methylpyrazolo[1,5-a]pyridin-3-yl)-N-(2,2,6,6-tetramethylpiperidin-4-yl)pyridazin-3-amine] | 3 to 9 |
| CC1(C)CC(Oc2ccc(-c3ccc4nccn4c3)nn2)CC(C)(C)N1 [Cpd 446, 6-{6-[(2,2,6,6-tetramethylpiperidin-4-yl)oxy]pyridazin-3-yl}imidazo[1,2-a]pyridine] | 3 to 9 |
| CC1(C)CC(Oc2ccc(-c3ccc(-c4cn[nH]c4)s3)nn2)CC(C)(C)N1 [Cpd 448, 3-[5-(1H-pyrazol-4-yl)thiophen-2-yl]-6-[(2,2,6,6-tetramethylpiperidin-4-yl)oxy]pyridazine] | 3 to 9 |
| Cn1cc(-c2ccc(-c3ccc(OC4CC(C)(C)NC(C)(C)C4)nn3)s2)cn1 [Cpd 449, 3-[5-(1-methyl-1H-pyrazol-4-yl)thiophen-2-yl]-6-[(2,2,6,6-tetramethylpiperidin-4-yl)oxy]pyridazine] | 3 to 9 |
| CN(c1ccc(-c2ccc(-c3cn[nH]c3)cc2F)nn1)C1CC(C)(C)NC(C)(C)C1 [Cpd 452, 6-[2-fluoro-4-(1H-pyrazol-4-yl)phenyl]-N-methyl-N-(2,2,6,6-tetramethylpiperidin-4-yl)pyridazin-3-amine] | 3 to 9 |

Further lines, results first:

| IC50 [µM] | SMILES |
| --- | --- |
| ≤ 0.1 | CC1(C)CC(Oc2ccc(-c3ccc(-n4cc([N+](=O)[O-])cn4)cc3O)nn2)CC(C)(C)N1 [Cpd 423, 5-(4-nitro-1H-pyrazol-1-yl)-2-{6-[(2,2,6,6-tetramethylpiperidin-4-yl)oxy]pyridazin-3-yl}phenol] |
| 0.1 to 0.5 | CC1(C)CC(Oc2ccc(-c3cc(F)c(-c4cn[nH]c4)cc3F)nn2)CC(C)(C)N1 [Cpd 431, 3-[2,5-difluoro-4-(1H-pyrazol-4-yl)phenyl]-6-[(2,2,6,6-tetramethylpiperidin-4-yl)oxy]pyridazine] |
| 0.1 to 0.5 | Oc1cc(-c2cn[nH]c2)ccc1-c1ccc(OC2CCNCC2)nn1 [Cpd 432, 2-[6-(piperidin-4-yloxy)pyridazin-3-yl]-5-(1H-pyrazol-4-yl)phenol] |
| 1 to 3 | CC1(C)CC(Oc2ccc(-c3ccc(-c4cn[nH]c4)cc3F)nn2)CC(C)(C)N1 [Cpd 437, 3-[2-fluoro-4-(1H-pyrazol-4-yl)phenyl]-6-[(2,2,6,6-tetramethylpiperidin-4-yl)oxy]pyridazine] |
| 1 to 3 | Oc1cc(-c2cn[nH]c2)ccc1-c1ccc(N2CC3(CCNCC3)C2)nn1 [Cpd 439, 2-[6-(2,7-diazaspiro[3.5]non-2-yl)pyridazin-3-yl]-5-(1H-pyrazol-4-yl)phenol] |
| 3 to 9 | Cn1cc2cc(-c3ccc(OC4CC(C)(C)NC(C)(C)C4)nn3)ccc2n1 [Cpd 443, 2-methyl-5-{6-[(2,2,6,6-tetramethylpiperidin-4-yl)oxy]pyridazin-3-yl}-2H-indazole] |
| 3 to 9 | COc1cc(Cl)ccc1-c1ccc(OC2CC(C)(C)NC(C)(C)C2)nn1 [Cpd 444, 3-(4-chloro-2-methoxyphenyl)-6-[(2,2,6,6-tetramethylpiperidin-4-yl)oxy]pyridazine] |
| 3 to 9 | CC1(C)CC(Oc2ccc(-c3cc(-c4cn[nH]c4)cs3)nn2)CC(C)(C)N1 [Cpd 450, 3-[4-(1H-pyrazol-4-yl)thiophen-2-yl]-6-[(2,2,6,6-tetramethylpiperidin-4-yl)oxy]pyridazine] |
| 3 to 9 | COc1cc(-n2cc([N+](=O)[O-])cn2)ccc1-c1ccc(OC2CC(C)(C)NC(C)(C)C2)nn1 [Cpd 454, 3-[2-methoxy-4-(4-nitro-1H-pyrazol-1-yl)phenyl]-6-[(2,2,6,6-tetramethylpiperidin-4-yl)oxy]pyridazine] |
